Common to all, as to test: growth of human tumour cells (NCI), 48 h
In experiment [1] the test system is NCI/ADR-RES.
For experiment [2], the system named is SK-MEL-5.
Experiment [3] concerns SK-MEL-28.
Experiment [4] has as its system SNB-75.
For experiment [5], the system named is MDA-N.
Experiment [6] relates to MOLT-4.
Experiment [7] deals with MDA-MB-435.
In experiment [8] the test system is 786-0.
Experiment [9] has as its system RXF 393.
Experiment [10] concerns EKVX.
Experiment [11] concerns M14.
For experiment [12], the system named is KM12.
Experiment [13] deals with OVCAR-3.
Experiment [14] deals with U-251.
Experiment [15] deals with SF-539.
For experiment [16], the system named is MDA-MB-231.
The test system of experiment [17] is SF-295.
The test system of experiment [18] is OVCAR-8.
In experiment [19] the test system is UACC-62.
The subject of experiment [20] is Hs-578T.

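Compound exposure: 48 hours, 5 concentrations, 96-well plates. Here, GI50 denotes the concentration required for 50% inhibition of growth.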 Active and inactive are the calls of the source. Cut-off read from the data, not from the text of the source: active = GI50 up to about 1.1 µM and inactive = higher. Bounds are passed on as bounds.

For `O=C(c1ccccc1)N1C(=S)N(c2ccccn2)C(=N/c2ccccc2)/C1=N\c1ccccc1`, the GI50 in [1] is 10.5 µM (inactive); in [2], 19.1 µM (inactive); in experiment [3], 22.3 µM (inactive); in [4], 20.5 µM (inactive); in experiment [5], 11.4 µM (inactive); in [6] it was 4.01 µM (inactive). Further, the GI50 in experiment [7] is 19.6 µM (inactive); in experiment [8] it was 16.7 µM (inactive); in experiment [9] it was 5.11 µM (inactive); in experiment [10], 24 µM (inactive); in [11], 55.6 µM (inactive); in [12], 5.43 µM (inactive). In addition, the GI50 is 18.2 µM (inactive) in experiment [13]; 8.11 µM (inactive) in [14]; 12.9 µM (inactive) in experiment [15]; 23.3 µM (inactive) in experiment [16]; 25.5 µM (inactive) in experiment [17]; 8.28 µM (inactive) in experiment [18]. The GI50 in experiment [19] was 11.2 µM (inactive).

For the molecule `CCn1ncc2c1nc(-c1ccccc1)c[n+]2[O-]`, the GI50 in [1] is > 100 µM (inactive); in experiment [3], > 100 µM (inactive); in [4], 36.9 µM (inactive); in [6] it was > 100 µM (inactive); in [7], > 100 µM (inactive); in experiment [8], > 100 µM (inactive). The GI50 in experiment [10] is > 100 µM (inactive); in experiment [11] it was 77.6 µM (inactive); in experiment [12], > 100 µM (inactive); in experiment [13], > 100 µM (inactive); in experiment [15], > 100 µM (inactive); in experiment [17], > 100 µM (inactive). Moreover, the GI50 in experiment [18] was 75 µM (inactive); in [19], 6.15 µM (inactive); in experiment [20], 61.1 µM (inactive).

Regarding `O=C1C=CC(O)C2C1CC13SSC4(CC5C(=O)C=CC(O)C5N4C1=O)C(=O)N23` (configuration not stated), the GI50 in experiment [1] is 0.0545 µM (active); in experiment [2], 0.412 µM (active); in [3], 0.302 µM (active); in [4], 1.11 µM (active); in [6], 0.0109 µM (active); in [7], 0.164 µM (active). The GI50 in experiment [8] was 0.0396 µM (active); in experiment [9], 0.483 µM (active); in experiment [10], 0.726 µM (active); in experiment [11], 0.157 µM (active); in experiment [12], 0.0885 µM (active); in [13], 0.0845 µM (active). Further, the GI50 is 0.234 µM (active) in [14]; 0.151 µM (active) in [15]; 0.281 µM (active) in experiment [16]; 1.09 µM (active) in experiment [17]; 0.0698 µM (active) in experiment [18]; 0.208 µM (active) in [19]. Moreover, in experiment [20], the GI50 is 0.5 µM (active).

For `Cc1ccc(S(=O)(=O)c2ccc([N+](=O)[O-])o2)cc1`, the GI50 was 2.25 µM (inactive) in [1]; 11 µM (inactive) in [2]; 1.98 µM (inactive) in [3]; 5.25 µM (inactive) in experiment [4]; 0.337 µM (active) in [6]; 1.81 µM (inactive) in experiment [7]. The GI50 in [8] was 1.67 µM (inactive); in [9], 1.62 µM (inactive); in experiment [10] it was 3.24 µM (inactive); in experiment [11], 1.83 µM (inactive); in experiment [12], 4.43 µM (inactive); in experiment [13] it was 1.76 µM (inactive). In addition, the GI50 was 5.48 µM (inactive) in experiment [14]; 1.91 µM (inactive) in [15]; 2.21 µM (inactive) in experiment [16]; 19.8 µM (inactive) in [17]; 0.906 µM (active) in experiment [18]; 2.32 µM (inactive) in experiment [19]. In addition, the GI50 in [20] is 2.53 µM (inactive).

Turning to `C(/Cc1ccc2c(c1)OCO2)=N\N=C1NCCCCN1`, the GI50 in [1] was > 100 µM (inactive); in experiment [2], 25.4 µM (inactive); in experiment [3], > 100 µM (inactive); in experiment [4], 44.8 µM (inactive); in experiment [6], 48.4 µM (inactive); in experiment [7], > 100 µM (inactive). Moreover, the GI50 in experiment [8] is > 100 µM (inactive); in experiment [9], > 100 µM (inactive); in [10], 50 µM (inactive); in [11], 16.4 µM (inactive); in experiment [12], 88.3 µM (inactive); in experiment [13] it was > 100 µM (inactive). In addition, the GI50 in experiment [14] is 86.3 µM (inactive); in experiment [15], > 100 µM (inactive); in [16] it was 76.2 µM (inactive); in experiment [17], 51.5 µM (inactive); in [18] it was > 100 µM (inactive); in experiment [19], > 100 µM (inactive). In experiment [20], the GI50 was > 100 µM (inactive).

Regarding `COC(=O)C1CC2(C)C=CC1N(C(=O)OCc1ccccc1)C2` (configuration not stated), the GI50 in experiment [1] was 41.3 µM (inactive); in experiment [2] it was 34.8 µM (inactive); in [3], > 100 µM (inactive); in experiment [4], 28.5 µM (inactive); in experiment [6] it was 31.6 µM (inactive); in [7], 79.6 µM (inactive). In addition, the GI50 is > 100 µM (inactive) in [8]; 41.9 µM (inactive) in [9]; 38.2 µM (inactive) in experiment [10]; 63.8 µM (inactive) in experiment [11]; 52.1 µM (inactive) in [12]; 55.8 µM (inactive) in [13]. Also, the GI50 in [14] is 58.1 µM (inactive); in [15], > 100 µM (inactive); in experiment [16], > 100 µM (inactive); in experiment [17], 42.4 µM (inactive); in experiment [18] it was > 100 µM (inactive); in experiment [19], 51.5 µM (inactive). Moreover, the GI50 in [20] was 86.5 µM (inactive).

Consider `CNC(=O)N(CCC#N)CCN(CCN(C(=O)NC)c1ccccc1)C(=O)NC`, for which the GI50 in [1], in experiment [2], in experiment [3], in experiment [4], in experiment [5] and in experiment [6] was > 100 µM (inactive) in each case. Further, the GI50 in [7], in [8], in [9], in experiment [10], in experiment [11] and in experiment [12] was > 100 µM (inactive) each time. In addition, the GI50 in experiment [13], in [14], in [15], in experiment [16], in experiment [17] and in [18] was > 100 µM (inactive) in each case. In addition, the GI50 in [19] is > 100 µM (inactive).

Take `COc1ccc(/C=C2\CCCCCC2=O)cc1`: the GI50 in experiment [1], in experiment [2], in experiment [3], in experiment [5], in experiment [6] and in experiment [7] was > 100 µM (inactive) in each case. Besides, the GI50 in experiment [8], in experiment [9], in experiment [10], in [11], in [12] and in experiment [13] was > 100 µM (inactive) throughout. Further, the GI50 in experiment [14], in experiment [15], in experiment [16], in [17], in [18] and in [19] was > 100 µM (inactive) throughout.

As to `CC(=O)N(C(C)=O)n1c(-c2ccccc2)n[nH]c1=O`, the GI50 in experiment [1], in experiment [2], in experiment [3], in experiment [4], in [5] and in experiment [6] was > 100 µM (inactive) in each case. Besides, the GI50 in experiment [7], in experiment [8], in [9], in [10], in [11] and in [12] was > 100 µM (inactive) throughout. The GI50 in [13], in [14], in [15], in [16], in experiment [17] and in [18] was > 100 µM (inactive) in each case. The GI50 in experiment [19] was > 100 µM (inactive).

On to `CCCc1cn2c(/C=N/NC(=N)N)c(-c3cc([N+](=O)[O-])c(Cl)cc3Cl)nc2s1`, for which the GI50 was 1.99 µM (inactive) in [1]; 1.61 µM (inactive) in experiment [2]; 1.71 µM (inactive) in experiment [4]; 0.17 µM (active) in experiment [6]; 1.8 µM (inactive) in [7]; 1.58 µM (inactive) in experiment [8]. Besides, the GI50 was 1.9 µM (inactive) in [9]; 1.74 µM (inactive) in [11]; 1.5 µM (inactive) in experiment [12]; 1.5 µM (inactive) in experiment [13]; 1.58 µM (inactive) in experiment [14]; 1.88 µM (inactive) in experiment [15]. Also, the GI50 in experiment [16] was 1.63 µM (inactive); in experiment [17], 1.73 µM (inactive); in experiment [18] it was 1.54 µM (inactive); in [19], 1.77 µM (inactive); in [20], 1.85 µM (inactive).

For `CN(C)/N=N/c1nc2c(c(=O)n(C)c(=O)n2C)n1CC1CO1` (configuration not stated), the GI50 in experiment [1] was 16.6 µM (inactive); in experiment [2] it was 12.9 µM (inactive); in experiment [3], 20.7 µM (inactive); in experiment [4], 11.7 µM (inactive); in [5], 19.9 µM (inactive); in [6], 12.3 µM (inactive). The GI50 in [7] was 16.7 µM (inactive); in experiment [8] it was 16.6 µM (inactive); in experiment [9], 2.88 µM (inactive); in [10], 22.4 µM (inactive); in experiment [11], 15.8 µM (inactive); in experiment [12] it was 13.4 µM (inactive). The GI50 in experiment [13] is 15.8 µM (inactive); in experiment [14], 12.5 µM (inactive); in experiment [15], 7.1 µM (inactive); in experiment [16] it was 16.9 µM (inactive); in experiment [17] it was 17 µM (inactive); in experiment [18] it was 14.5 µM (inactive). For the same molecule, in [19], the GI50 is 12.4 µM (inactive).

The values are drawn from ChEMBL document CHEMBL1201862, “PubChem BioAssay data set” (2004).
